In US20090111822A1, “1,2,3-TRIAZOLE PYRROLIDINE DERIVATIVES AS MODULATORS OF MGLUR5” (AstraZeneca AB, priority 2007, published 2009) one finds IC50 and Kp data, which are given here for two compounds.

One data set addresses T1, human mGluR5d (Homo sapiens, UniProt P41594).
T1 construct: expressed in transfected cells; The culture medium holds Hygromycin B and Zeocin, which points to a stably transfected line
Nature of the data set: FLIPR assay, mGluR5 antagonism (intracellular calcium mobilization). As to conditions: cells expressing human mGluR5d; read-out: FLIPR hmGluR5d. Format: cell-based. An excerpt: Functional Assessment of mGluR5 Antagonism in Cell Lines Expressing mGluR5D
The properties of the compounds of the invention can be analyzed using standard assays for pharmacological activity. Examples of glutamate receptor assays are well known in the art as described in for example Aramori et al, Neuron 8:757 (1992), Tanabe et al., Neuron 8:169 (1992), Miller et al., J. Neuroscience 15: 6103 (1995), Balazs, et al., J. Neurochemistry 69:151 (1997). The methodology described in these publications is incorporated herein by reference. […]
Cells expressing human mGluR5d as described in WO97/05252 cultured in a mixture of high glucose DMEM with Glutamax (31966-021) (500 mL), 10% dialyzed fetal bovine serum (Hyclone #SH30079.03) (56 mL), 200 μg/mL Hygromycin B (Invitrogen 45-0430, 50 mg/mL) (2.2 mL), 200 μg/mL Zeocin (Invitrogen #R250-01; 100 mg/mL) (1.1 mL) are seeded at a density of 100,000 cells per well on collagen coated clear bottom 96-well plates with black sides and cells were allowed to adhere over night before experiments. […] The fluorescence signal is sampled 50 times at 1-second intervals followed by 3 samples at 5-second intervals immediately after each of the two additions. Responses are measured as the difference between the peak heights of the response to agonist, less the background fluorescence within the sample period. […]
On the technique in general: Calcium flux is commonly read through the fluorescence of an indicator in the cells.

Data set [1] can be described thus: Determination of brain to plasma ratio in rat. Type of data set: in vivo. The following applies: brain and plasma, female Sprague Dawley rats, drug in brain over drug in plasma, read-out: Brain/Plasma Ratio of compound in Rat. The method, then: Brain to plasma ratios are estimated in female Sprague Dawley rats. The compound is dissolved in water or another appropriate vehicle. For determination of brain to plasma ratio the compound is administrated as a subcutaneous, or an intravenous bolus injection, or an intravenous infusion, or an oral administration. At a predetermined time point after the administration a blood sample is taken with cardiac puncture. The rat is terminated by cutting the heart open, and the brain is immediately retained. The blood samples are collected in heparinized tubes and centrifuged within 30 minutes, in order to separate the plasma from the blood cells. The plasma is transferred to 96-well plates and stored at −20° C. until analysis. The brains are divided in halt and each half is placed in a pre-tarred tube and stored at −20° C. until analysis. Prior to the analysis, the brain samples are thawed and 3 mL/g brain tissue of distilled water is added to the tubes. The brain samples are sonicated in an ice bath until the samples are homogenized. Both brain and plasma samples are precipitated with acetonitrile. After centrifugation, the supernatant is diluted with 0.2% formic acid. […] After reconstitution of the residuals the samples are ready for injection onto the HPLC column.

Each structure is given as a SMILES string.

T1 sequence (P41594 21-942 isoform P41594-3 limits assumed): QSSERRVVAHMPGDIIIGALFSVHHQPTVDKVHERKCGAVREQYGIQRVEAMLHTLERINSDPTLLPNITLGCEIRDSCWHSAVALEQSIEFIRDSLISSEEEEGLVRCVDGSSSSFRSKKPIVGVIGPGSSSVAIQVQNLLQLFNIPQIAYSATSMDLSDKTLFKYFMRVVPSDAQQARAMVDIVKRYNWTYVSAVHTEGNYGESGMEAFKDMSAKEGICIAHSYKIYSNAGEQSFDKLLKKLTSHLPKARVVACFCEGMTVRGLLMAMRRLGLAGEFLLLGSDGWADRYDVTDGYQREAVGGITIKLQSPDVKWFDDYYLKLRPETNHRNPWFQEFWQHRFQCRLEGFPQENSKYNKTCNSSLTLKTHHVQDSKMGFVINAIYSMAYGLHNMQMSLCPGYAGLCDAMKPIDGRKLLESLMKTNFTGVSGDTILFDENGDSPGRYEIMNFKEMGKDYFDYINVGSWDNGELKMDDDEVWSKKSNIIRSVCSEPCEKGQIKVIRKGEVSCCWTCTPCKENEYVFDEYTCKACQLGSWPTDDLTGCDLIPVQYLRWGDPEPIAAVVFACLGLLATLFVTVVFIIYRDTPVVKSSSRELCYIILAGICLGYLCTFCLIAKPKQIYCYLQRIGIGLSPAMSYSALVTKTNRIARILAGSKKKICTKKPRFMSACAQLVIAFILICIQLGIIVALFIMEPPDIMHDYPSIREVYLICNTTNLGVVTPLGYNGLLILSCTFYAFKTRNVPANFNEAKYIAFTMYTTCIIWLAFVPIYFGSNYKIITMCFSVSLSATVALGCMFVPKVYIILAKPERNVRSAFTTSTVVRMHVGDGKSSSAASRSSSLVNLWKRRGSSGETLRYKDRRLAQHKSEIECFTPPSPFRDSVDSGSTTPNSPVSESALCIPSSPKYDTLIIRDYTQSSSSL

On to `Cn1c(-c2ccncc2)nnc1N1CCC[C@@H]1c1cn(-c2cccc(Cl)c2)nn1` [Example 8.1, 4-(5-{(2R)-2-[1-(3-Chlorophenyl)-1H-1,2,3-triazol-4-yl]pyrrolidin-1-yl}-4-methyl-4H-1,2,4-triazol-3-yl)pyridine], for which the IC50 on human mGluR5d stood at 58 nM. For the same compound, in data set [1], the Kp turned out to be 0.03.

Consider `Cn1c(-c2cccnc2)nnc1N1CCC[C@@H]1c1cn(-c2cccc(Cl)c2)nn1` [Example 8.2, 3-(5-{(2R)-2-[1-(3-chlorophenyl)-1H-1,2,3-triazol-4-yl]pyrrolidin-1-yl}-4-methyl-4H-1,2,4-triazol-3-yl)pyridine], for which the IC50 at human mGluR5d was 116 nM. Also, in data set [1], the Kp was less than 0.015.
